{"source": "patent US20150197492A1", "about": "“NOVEL INDENO[1,2-c]QUINOLIN-11-ONE DERIVATIVES, PREPARATION METHOD AND APPLICATION THEREOF” (National Defense Medical Center, priority 2014, published 2015)", "type_in_all_cases": "cell-based", "key": {"human PC-3 cells": {"system": "human PC-3 cells", "assay": "Sulforhodamine B (SRB) assay, cytotoxicity against PC-3 cells", "conditions": "SRB assay, PC-3 cells", "in_short": "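PC-3 cells in 5% FBS were fixed with 10% TCA after 24 h as T0, then treated with compound for 48 h, fixed, stained with 0.4% SRB in 1% acetic acid and solubilized in 10 mmol/L Trizma base. Absorbance was read at 515 nm. GI% = 100−[(Tx−T0)/(C−T0)]×100, and IC50 is the concentration halving total protein.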"}, "CCRF-CEM": {"system": "CCRF-CEM", "assay": "cells", "conditions": "CCRF-CEM (Leukemia), 10 μM, 48 hours"}, "HL-60 (TB)": {"system": "HL-60 (TB)", "assay": "cells", "conditions": "HL-60 (TB) (Leukemia), 10 μM, 48 hours"}, "A549/ATCC": {"system": "A549/ATCC", "assay": "cells", "conditions": "A549/ATCC (Non-Small Cell Lung Cancer), 10 μM, 48 hours"}, "HOP-62": {"system": "HOP-62", "assay": "cells", "conditions": "HOP-62 (Non-Small Cell Lung Cancer), 10 μM, 48 hours"}, "NCI-H226": {"system": "NCI-H226", "assay": "cells", "conditions": "NCI-H226 (Non-Small Cell Lung Cancer), 10 μM, 48 hours"}, "HCC-2998": {"system": "HCC-2998", "assay": "cells", "conditions": "HCC-2998 (Colon Cancer), 10 μM, 48 hours"}, "HCT-116": {"system": "HCT-116", "assay": "cells", "conditions": "HCT-116 (Colon Cancer), 10 μM, 48 hours"}, "HCT-15": {"system": "HCT-15", "assay": "cells", "conditions": "HCT-15 (Colon Cancer), 10 μM, 48 hours"}, "HT29": {"system": "HT29", "assay": "cells", "conditions": "HT29 (Colon Cancer), 10 μM, 48 hours"}, "KM12": {"system": "KM12", "assay": "cells", "conditions": "KM12 (Colon Cancer), 10 μM, 48 hours"}, "SF-268": {"system": "SF-268", "assay": "cells", "conditions": "SF-268 (CNS Cancer), 10 μM, 48 hours"}, "SF-295": {"system": "SF-295", "assay": "cells", "conditions": "SF-295 (CNS Cancer), 10 μM, 48 hours"}, "SF-539": {"system": "SF-539", "assay": "cells", "conditions": "SF-539 (CNS Cancer), 10 μM, 48 hours"}, "U251": {"system": "U251", "assay": "cells", "conditions": "U251 (CNS Cancer), 10 μM, 48 hours"}, "MALME-3M": {"system": "MALME-3M", "assay": "cells", "conditions": "MALME-3M (Melanoma), 10 μM, 48 hours"}, "MDA-MB-435": {"system": "MDA-MB-435", "assay": "cells", "conditions": "MDA-MB-435 (Melanoma), 10 μM, 48 hours"}, "SK-MEL-28": {"system": "SK-MEL-28", "assay": "cells", "conditions": "SK-MEL-28 (Melanoma), 10 μM, 48 hours"}, "UACC-257": {"system": "UACC-257", "assay": "cells", "conditions": "UACC-257 (Melanoma), 10 μM, 48 hours"}, "UACC-62": {"system": "UACC-62", "assay": "cells", "conditions": "UACC-62 (Melanoma), 10 μM, 48 hours"}, "IGROV1": {"system": "IGROV1", "assay": "cells", "conditions": "IGROV1 (Ovarian Cancer), 10 μM, 48 hours"}, "NCI/ADR-RES": {"system": "NCI/ADR-RES", "assay": "cells", "conditions": "NCI/ADR-RES (Ovarian Cancer), 10 μM, 48 hours"}, "A498": {"system": "A498", "assay": "cells", "conditions": "A498 (Renal Cancer), 10 μM, 48 hours"}, "CAKI-1": {"system": "CAKI-1", "assay": "cells", "conditions": "CAKI-1 (Renal Cancer), 10 μM, 48 hours"}, "DU-145": {"system": "DU-145", "assay": "cells", "conditions": "DU-145 (Prostate Cancer), 10 μM, 48 hours"}, "MCF7": {"system": "MCF7", "assay": "cells", "conditions": "MCF7 (Breast Cancer), 10 μM, 48 hours"}, "MDA-MB-231/ATCC": {"system": "MDA-MB-231/ATCC", "assay": "cells", "conditions": "MDA-MB-231/ATCC (Breast Cancer), 10 μM, 48 hours"}, "HS 578T": {"system": "HS 578T", "assay": "cells", "conditions": "HS 578T (Breast Cancer), 10 μM, 48 hours"}, "BT-549": {"system": "BT-549", "assay": "cells", "conditions": "BT-549 (Breast Cancer), 10 μM, 48 hours"}}}
{"smiles": "O=C1c2cc(Cl)ccc2-c2c(N3CCSCC3)nc3ccccc3c21", "note": "[SJ-9, 9-Chloro-6-thiomorpholino-11H-indeno[1,2-c]quinolin-11-one]", "values": [{"measurement": "Toxicity (%)", "setting": "human PC-3 cells", "result": 33.3, "unit": "%"}, {"measurement": "GI % (10 μM)", "setting": "human PC-3 cells; 10 μM", "result": 100, "unit": "%"}, {"measurement": "growth percentage", "setting": "CCRF-CEM", "result": 105.04, "unit": "%"}, {"measurement": "growth percentage", "setting": "HL-60 (TB)", "result": 94.50, "unit": "%"}, {"measurement": "growth percentage", "setting": "A549/ATCC", "result": 104.35, "unit": "%"}, {"measurement": "growth percentage", "setting": "HOP-62", "result": 78.17, "unit": "%"}, {"measurement": "growth percentage", "setting": "NCI-H226", "result": 94.22, "unit": "%"}, {"measurement": "growth percentage", "setting": "HCC-2998", "result": 103.16, "unit": "%"}, {"measurement": "growth percentage", "setting": "HCT-116", "result": 89.08, "unit": "%"}, {"measurement": "growth percentage", "setting": "HCT-15", "result": 97.88, "unit": "%"}, {"measurement": "growth percentage", "setting": "HT29", "result": 95.52, "unit": "%"}, {"measurement": "growth percentage", "setting": "KM12", "result": 97.97, "unit": "%"}, {"measurement": "growth percentage", "setting": "SF-268", "result": 96.13, "unit": "%"}, {"measurement": "growth percentage", "setting": "SF-295", "result": 93.33, "unit": "%"}, {"measurement": "growth percentage", "setting": "SF-539", "result": 92.93, "unit": "%"}, {"measurement": "growth percentage", "setting": "U251", "result": 111.96, "unit": "%"}, {"measurement": "growth percentage", "setting": "MALME-3M", "result": 101.05, "unit": "%"}, {"measurement": "growth percentage", "setting": "MDA-MB-435", "result": 107.70, "unit": "%"}, {"measurement": "growth percentage", "setting": "SK-MEL-28", "result": 110.84, "unit": "%"}, {"measurement": "growth percentage", "setting": "UACC-257", "result": 107.44, "unit": "%"}, {"measurement": "growth percentage", "setting": "UACC-62", "result": 94.90, "unit": "%"}, {"measurement": "growth percentage", "setting": "IGROV1", "result": 72.45, "unit": "%"}, {"measurement": "growth percentage", "setting": "NCI/ADR-RES", "result": 102.85, "unit": "%"}, {"measurement": "growth percentage", "setting": "A498", "result": 99.15, "unit": "%"}, {"measurement": "growth percentage", "setting": "CAKI-1", "result": 82.68, "unit": "%"}, {"measurement": "growth percentage", "setting": "DU-145", "result": 106.04, "unit": "%"}, {"measurement": "growth percentage", "setting": "MCF7", "result": 49.61, "unit": "%"}, {"measurement": "growth percentage", "setting": "MDA-MB-231/ATCC", "result": 93.08, "unit": "%"}, {"measurement": "growth percentage", "setting": "HS 578T", "result": 87.68, "unit": "%"}, {"measurement": "growth percentage", "setting": "BT-549", "result": 92.91, "unit": "%"}]}
